# Experimental data from US20070026408A1, “Materials and methods for analysis of atp-binding cassette transporter gene expression” (priority 2003, published 2007).
# Where a name gives a salt, the structure may show the parent alone.
# Tests used:
# abcC8 = assay: DT1 microarray drug screening, drug-treated HepG2: abcC8; type: cell-based, human; conditions: HepG2, doxorubicin HCl 25 nM, standard 11
# Description: (§1) The labelled cDNA target preparation was thawed and the 150 μl added to 850 ul hybridisation buffer (500 mM sodium Phosphate pH 6.0, 1% SDS, 1% BSA, 1 mM EDTA) in a 1.5 ml microtube and heated at 95° C. for 10 min.
# abcB8 = assay: DT1 microarray drug screening, drug-treated HepG2: abcB8; type: cell-based, human; conditions: HepG2, doxorubicin HCl 25 nM, standard 11
# Description: as §1
# abcD3 = assay: DT1 microarray drug screening, drug-treated HepG2: abcD3; type: cell-based, human; conditions: HepG2, doxorubicin HCl 25 nM, standard 11
# Description: as §1
# abcG8 = assay: DT1 microarray drug screening, drug-treated HepG2: abcG8; type: cell-based, human; conditions: HepG2, doxorubicin HCl 25 nM, standard 11
# Description: as §1
# abcF2 = assay: DT1 microarray drug screening, drug-treated HepG2: abcF2; type: cell-based, human; conditions: HepG2, doxorubicin HCl 25 nM, standard 11
# Description: as §1
# abcA1 = assay: DT1 microarray drug screening, drug-treated HepG2: abcA1; type: cell-based, human; conditions: HepG2, doxorubicin HCl 25 nM, standard 11
# Description: as §1
# abcC6 = assay: DT1 microarray drug screening, drug-treated HepG2: abcC6; type: cell-based, human; conditions: HepG2, doxorubicin HCl 25 nM, standard 11
# Description: as §1
# abcA8 = assay: DT1 microarray drug screening, drug-treated HepG2: abcA8; type: cell-based, human; conditions: HepG2, doxorubicin HCl 25 nM, standard 11
# Description: as §1
# abcB9 = assay: DT1 microarray drug screening, drug-treated HepG2: abcB9; type: cell-based, human; conditions: HepG2, doxorubicin HCl 25 nM, standard 11
# Description: as §1
# abcG1 = assay: DT1 microarray drug screening, drug-treated HepG2: abcG1; type: cell-based, human; conditions: HepG2, doxorubicin HCl 25 nM, standard 11
# Description: as §1
# abcB10 = assay: DT1 microarray drug screening, drug-treated HepG2: abcB10; conditions: HepG2, doxorubicin HCl 25 nM, standard 11
# abcA4 = assay: DT1 microarray drug screening, drug-treated HepG2: abcA4; type: cell-based, human; conditions: HepG2, doxorubicin HCl 25 nM, standard 11
# Description: as §1
# abcG4 = assay: DT1 microarray drug screening, drug-treated HepG2: abcG4; type: cell-based, human; conditions: HepG2, doxorubicin HCl 25 nM, standard 11
# Description: as §1
# abcC13 = assay: DT1 microarray drug screening, drug-treated HepG2: abcC13; type: cell-based, human; conditions: HepG2, doxorubicin HCl 25 nM, standard 11
# Description: as §1
# abcC12 = assay: DT1 microarray drug screening, drug-treated HepG2: abcC12; type: cell-based, human; conditions: HepG2, doxorubicin HCl 25 nM, standard 11
# Description: as §1
# abcC1 = assay: DT1 microarray drug screening, drug-treated HepG2: abcC1; conditions: HepG2, doxorubicin HCl 25 nM, standard 11
# abcC10 = assay: DT1 microarray drug screening, drug-treated HepG2: abcC10; type: cell-based, human; conditions: HepG2, doxorubicin HCl 25 nM, standard 11
# Description: as §1
# abcB3 = assay: DT1 microarray drug screening, drug-treated HepG2: abcB3; type: cell-based, human; conditions: HepG2, doxorubicin HCl 25 nM, standard 11
# Description: as §1
# abcD1 = assay: DT1 microarray drug screening, drug-treated HepG2: abcD1; type: cell-based, human; conditions: HepG2, doxorubicin HCl 25 nM, standard 11
# Description: as §1
# abcC3 = assay: DT1 microarray drug screening, drug-treated HepG2: abcC3; type: cell-based, human; conditions: HepG2, doxorubicin HCl 25 nM, standard 11
# Description: as §1
# abcF3 = assay: DT1 microarray drug screening, drug-treated HepG2: abcF3; type: cell-based, human; conditions: HepG2, doxorubicin HCl 25 nM, standard 11
# Description: as §1
# abcB2 = assay: DT1 microarray drug screening, drug-treated HepG2: abcB2; type: cell-based, human; conditions: HepG2, doxorubicin HCl 25 nM, standard 11
# Description: as §1
# abcF1 = assay: DT1 microarray drug screening, drug-treated HepG2: abcF1; type: cell-based, human; conditions: HepG2, doxorubicin HCl 25 nM, standard 11
# Description: as §1
# abcG5 = assay: DT1 microarray drug screening, drug-treated HepG2: abcG5; type: cell-based, human; conditions: HepG2, doxorubicin HCl 25 nM, 2 h, standard 11
# Description: as §1
smiles,measurement,setting,value
"COc1cccc2c1C(=O)c1c(O)c3c(c(O)c1C2=O)C[C@@](O)(C(=O)CO)C[C@@H]3O[C@H]1C[C@H](N)[C@H](O)[C@H](C)O1 [dox, doxorubicin HCl]",relative level of abcC8 gene expression,abcC8; 2 h,0.3229
same,relative level of abcC8 gene expression,abcC8; 4 h,0.2437
same,relative level of abcC8 gene expression,abcC8; 8 h,0.2255
same,relative level of abcB8 gene expression,abcB8; 2 h,8.004
same,relative level of abcB8 gene expression,abcB8; 4 h,5.438
same,relative level of abcB8 gene expression,abcB8; 8 h,5.353
same,relative level of abcD3 gene expression,abcD3; 2 h,2.099
same,relative level of abcD3 gene expression,abcD3; 4 h,1.787
same,relative level of abcD3 gene expression,abcD3; 8 h,1.733
same,relative level of abcG8 gene expression,abcG8; 2 h,4.697
same,relative level of abcG8 gene expression,abcG8; 4 h,2.811
same,relative level of abcG8 gene expression,abcG8; 8 h,2.9413
same,relative level of abcF2 gene expression,abcF2; 2 h,5.979
same,relative level of abcF2 gene expression,abcF2; 4 h,4.068
same,relative level of abcF2 gene expression,abcF2; 8 h,4.807
same,relative level of abcA1 gene expression,abcA1; 2 h,3.053
same,relative level of abcA1 gene expression,abcA1; 4 h,1.866
same,relative level of abcA1 gene expression,abcA1; 8 h,2.346
same,relative level of abcC6 gene expression,abcC6; 2 h,7.696
same,relative level of abcC6 gene expression,abcC6; 4 h,4.516
same,relative level of abcC6 gene expression,abcC6; 8 h,4.899
same,relative level of abcA8 gene expression,abcA8; 2 h,3.036
same,relative level of abcA8 gene expression,abcA8; 4 h,1.786
same,relative level of abcA8 gene expression,abcA8; 8 h,2.174
same,relative level of abcB9 gene expression,abcB9; 2 h,8.388
same,relative level of abcB9 gene expression,abcB9; 4 h,4.897
same,relative level of abcB9 gene expression,abcB9; 8 h,5.523
same,relative level of abcG1 gene expression,abcG1; 2 h,5.472
same,relative level of abcG1 gene expression,abcG1; 4 h,3.555
same,relative level of abcG1 gene expression,abcG1; 8 h,3.839
same,relative level of abcB10 gene expression,abcB10; 2 h,2.116
same,relative level of abcB10 gene expression,abcB10; 4 h,1.484
same,relative level of abcB10 gene expression,abcB10; 8 h,1.542
same,relative level of abcA4 gene expression,abcA4; 2 h,8.765
same,relative level of abcA4 gene expression,abcA4; 4 h,4.535
same,relative level of abcA4 gene expression,abcA4; 8 h,6.099
same,relative level of abcG4 gene expression,abcG4; 2 h,9.59
same,relative level of abcG4 gene expression,abcG4; 4 h,5.309
same,relative level of abcG4 gene expression,abcG4; 8 h,6.271
same,relative level of abcC13 gene expression,abcC13; 2 h,3.203
same,relative level of abcC13 gene expression,abcC13; 4 h,2.548
same,relative level of abcC13 gene expression,abcC13; 8 h,2.593
same,relative level of abcC12 gene expression,abcC12; 2 h,5.226
same,relative level of abcC12 gene expression,abcC12; 4 h,3.532
same,relative level of abcC12 gene expression,abcC12; 8 h,3.976
same,relative level of abcC1 gene expression,abcC1; 2 h,7.005
same,relative level of abcC1 gene expression,abcC1; 4 h,4.767
same,relative level of abcC1 gene expression,abcC1; 8 h,5.056
same,relative level of abcC10 gene expression,abcC10; 2 h,5.151
same,relative level of abcC10 gene expression,abcC10; 4 h,3.335
same,relative level of abcC10 gene expression,abcC10; 8 h,3.633
same,relative level of abcB3 gene expression,abcB3; 2 h,6.838
same,relative level of abcB3 gene expression,abcB3; 4 h,4.325
same,relative level of abcB3 gene expression,abcB3; 8 h,4.813
same,relative level of abcD1 gene expression,abcD1; 2 h,4.477
same,relative level of abcD1 gene expression,abcD1; 4 h,3.386
same,relative level of abcD1 gene expression,abcD1; 8 h,3.516
same,relative level of abcC3 gene expression,abcC3; 2 h,7.156
same,relative level of abcC3 gene expression,abcC3; 4 h,4.014
same,relative level of abcC3 gene expression,abcC3; 8 h,4.2
same,relative level of abcF3 gene expression,abcF3; 2 h,3.921
same,relative level of abcF3 gene expression,abcF3; 4 h,2.795
same,relative level of abcF3 gene expression,abcF3; 8 h,2.793
same,relative level of abcB2 gene expression,abcB2; 2 h,5.067
same,relative level of abcB2 gene expression,abcB2; 4 h,3.715
same,relative level of abcB2 gene expression,abcB2; 8 h,4.008
same,relative level of abcF1 gene expression,abcF1; 2 h,2.485
same,relative level of abcF1 gene expression,abcF1; 4 h,2.87
same,relative level of abcF1 gene expression,abcF1; 8 h,2.662
same,relative level of abcG5 gene expression,abcG5,2.201
